The term IC50 denotes the midpoint of a concentration-inhibition curve.

One assay has as its target T1, Fyn (Homo sapiens, UniProt P06241).
T1 construct: purchased Upstate 14-441
Put plainly: Fyn kinase assay. Format: biochemical. How it is done:
• 1. Assay Buffer: 200 mM Tris-HCl pH 7.5, 0.4 mM EGTA, 0.4 mM sodium orthovanadate. • 2. Magnesium/ATP Cocktail (Catalog #20-113): 500 μM cold ATP and 75 mM magnesium chloride in 20 mM MOPS, pH 7.2, 25 mM α-glycerol phosphate, 5 mM EGTA, 1 mM sodium orthovanadate, 1 mM dithiothreitol. • 3. [γ-^32P]ATP: Stock 1 mCi/100 μl (3000 Ci/mmol, obtained from DuPont-NEN). Make 10 μl aliquots (100 μCi/vial). Before starting the assay, dilute an aliquot with 90 μl of Magnesium/ATP Cocktail. • 4. Enzyme Dilution Buffer: 20 mM MOPS pH 7.5, 1 mM EDTA, 0.01% Brij-35, 5% glycerol, 0.1% β-mercaptoethanol, 1 mg/ml BSA. • 5. Fyn: Dilute with Enzyme Dilution Buffer to prepare a 4 ng-40 ng/μl stock. Use 2.5 μl per assay point. • 6. Src Substrate Peptide (Catalog #12-140): Dilute to 2.5 mM with distilled water. Use 2.5 μl per say point.
• 1. Add 6.25 μl of Assay Buffer per assay. • 2. Add 2.5 μl of diluted Fyn. • 3. Add 2.5 μl Src Substrate peptide (250 μM). • 4. Add 3.75 μl distilled water. • 5. Add 10 μl of the [γ-^32P]ATP solution. • 6. Incubate for 10 minutes at 30° C. • 7. Transfer a 20 μl aliquot onto the center of a 2 cm×2 cm P81 paper. • 8. Wash assay squares three times with 0.75% phosphoric acid for 5 minutes per wash. • 9. Wash assay squares once with acetone for 1-2 minutes. • 10. Transfer assay squares to a scintillation vial and add 1 ml scintillation cocktail. • 11. Read in scintillation counter. Compare cpm of enzyme samples to cpm of control samples that contain no enzyme (background control).

In another assay the target is T2, Rsk3 (Homo sapiens, UniProt Q15349).
T2 construct: purchased Upstate 14-462
In words: Rsk3 kinase assay. Format: biochemical. How it is done: • 1. 2.5× Reaction Buffer: 20 mM MOPS, pH 7.0, 1 mM EGTA. • 2. Enzyme Dilution Buffer (EDB): 20 mM MOPS, pH 7.0, 1 mM EDTA, 0.01% Brij-35, 5% glycerol, 0.1% β-mercaptoethanol, 1 mg/ml BSA. • 3. RSK3, active: Dilute to 4-40 ng/μl with EDB. Use 2.5 μl per assay point. • 4. MAPKAP Kinase 2 substrate peptide (Catalog #12-240): Prepare a 2.5 mM stock. Use 2.5 μl per assay point for a final concentration of 250 μM per assay. • 5. Magnesium/ATP Cocktail (Catalog #20-113): 75 mM MgCl2 and 500 μM ATP in 20 mM MOPS, pH 7.2, 25 mM β-glycerol phosphate, 5 mM EGTA, 1 mM sodium orthovanadate, 1 mM dithiothreitol. • 6. [γ-^32P]ATP: Stock 1 mCi/100 μl (3000 Ci/mmol, obtained from PerkinElmer, Catalog #BLU002A). Make 10 μl aliquots (100 μCi/vial). Before starting the assay, dilute the Magnesium/ATP Cocktail 1:1 with sterile, distilled water. Then dilute an aliquot of [γ-^32P]ATP to 1 μCi/μl with 90 μl of the diluted Magnesium/ATP Cocktail. […]
• 1. Add 10 μl of 2.5× Reaction Buffer per assay. • 2. Add 2.5 μl of MAPKAP Kinase 2 substrate peptide. • 3. Add 2.5 μl of RSK3, active (10-100 ng). • 4. Add 10 μl of the diluted [γ^32P]ATP mixture. • 5. Incubate for 10 minutes at 30° C. • 6. Transfer a 20 μl aliquot onto the center of a 2 cm×2 cm P81 paper. • 7. Wash the assay squares three times for 5 minutes with 0.75% phosphoric acid. • 8. Wash the assay squares once for 5 minutes with acetone. • 9. Transfer the assay squares to vial and add 5 ml scintillation cocktail. • 10. Read in scintillation counter. Compare cpm of enzyme samples to cpm of control samples that contain background control.

The next assay relates to CEM. In words: SRB cytotoxicity, CEM parental cells. The assay is classed as cell-based. To be noted: Homo sapiens, CCRF-CEM, 72 h. The procedure: In these experiments, the P-glycoprotein expressing NCI-Adr resistant subline (Vickers et al., 1989. Mol Endocrinology 3 (1):157-164) was used. […] Briefly, cells were plated in 96 well dishes 24 hours prior to compound addition. Where noted, they were exposed to verapamil for 4 hours prior to compound addition and then throughout the treatment period (72 hours). The assay was terminated with the addition of cold TCA to a final concentration of 10% and the plates were incubated for one hour at 4° C. The plates were then washed 5 times with water and 100 μl of a Sulforhodamine B solution (4%) was added to each well. The plate was then incubated for 10 minutes at room temperature before removal of unbound dye by washing with 1% acetic acid.
The Camptothecin resistant CEM/C2 cells were derived from the T lymphoblastoid leukemia cell line CCRF/CEM by selection in the presence of Camptothecin in vitro (Kapoor et al., 1995. Oncology Research 7; 83-95, ATCC).
The effects of A37 and B16 were evaluated in the CCRF/CEM and CEM/C2 cells using the same SRB assay as described above, with 72-hour drug exposure.

The mark [1] stands for this setting: read-out: FYN Inhibition (IC50).
The mark [2] stands for this setting: read-out: RPS6KA2 Inhibition (IC50).

Counter-ions that a name gives are not always drawn. Like-named read-outs stand apart in the source and are kept apart here.

T1 sequence (P06241 whole entry): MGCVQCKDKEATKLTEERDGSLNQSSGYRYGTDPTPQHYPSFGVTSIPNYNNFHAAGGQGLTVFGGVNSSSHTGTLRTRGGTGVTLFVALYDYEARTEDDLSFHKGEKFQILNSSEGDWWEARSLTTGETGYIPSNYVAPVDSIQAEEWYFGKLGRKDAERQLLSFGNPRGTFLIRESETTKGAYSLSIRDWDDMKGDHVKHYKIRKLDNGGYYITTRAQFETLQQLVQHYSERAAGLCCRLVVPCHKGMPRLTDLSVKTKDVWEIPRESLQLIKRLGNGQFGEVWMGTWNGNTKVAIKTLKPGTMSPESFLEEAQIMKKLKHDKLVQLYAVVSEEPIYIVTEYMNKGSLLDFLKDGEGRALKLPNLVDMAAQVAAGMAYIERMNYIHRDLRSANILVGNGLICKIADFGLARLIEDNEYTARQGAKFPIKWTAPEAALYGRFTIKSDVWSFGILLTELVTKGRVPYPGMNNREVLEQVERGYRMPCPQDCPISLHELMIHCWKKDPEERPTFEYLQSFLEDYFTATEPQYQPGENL
T2 sequence (Q15349 whole entry, species assumed): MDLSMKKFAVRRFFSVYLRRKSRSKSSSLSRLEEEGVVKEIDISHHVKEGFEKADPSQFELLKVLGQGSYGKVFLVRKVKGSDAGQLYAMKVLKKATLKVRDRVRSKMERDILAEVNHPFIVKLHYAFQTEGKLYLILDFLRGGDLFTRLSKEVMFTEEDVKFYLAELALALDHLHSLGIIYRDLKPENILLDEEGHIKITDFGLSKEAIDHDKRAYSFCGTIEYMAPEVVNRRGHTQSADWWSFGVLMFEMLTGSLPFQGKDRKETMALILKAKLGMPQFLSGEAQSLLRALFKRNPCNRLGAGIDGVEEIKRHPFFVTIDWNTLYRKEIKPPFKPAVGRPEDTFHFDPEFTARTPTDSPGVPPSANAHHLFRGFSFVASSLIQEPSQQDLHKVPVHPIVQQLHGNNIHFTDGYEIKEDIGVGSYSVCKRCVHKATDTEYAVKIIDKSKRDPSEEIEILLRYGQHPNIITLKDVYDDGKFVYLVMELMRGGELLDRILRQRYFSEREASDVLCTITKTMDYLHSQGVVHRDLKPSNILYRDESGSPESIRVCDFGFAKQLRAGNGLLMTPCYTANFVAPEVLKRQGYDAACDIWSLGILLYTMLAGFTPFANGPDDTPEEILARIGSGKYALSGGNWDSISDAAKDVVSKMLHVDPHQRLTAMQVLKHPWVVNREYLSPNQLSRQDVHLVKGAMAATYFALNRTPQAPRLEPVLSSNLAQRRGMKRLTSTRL

As for `CC(C)N1CCN(C(=O)COc2ccc(-c3n[nH]c4c3C(=O)c3c(NC(=O)NN5CCOCC5)cccc3-4)cc2)CC1` [Compound A37], the IC50 is under 100 nM at Fyn (setting [1]); 10 to 100 nM on Rsk3 (kinase panel, 10 μM ATP, read-out: Ribosomal protein S6 kinase 3 (Rsk3) IC50); under 50 nM at Rsk3 (setting [2]); 21.3 nM in the assay on CEM.

Take `COCCN1CCN(Cc2ccc(-c3n[nH]c4c3C(=O)c3c(NC(=O)NN5CCOCC5)cccc3-4)cc2)CC1` [Compound B16, N-[3-(4-{[4-(2-methoxyethyl)piperazinyl]methyl}phenyl)-4-oxoindeno[2,3-d]pyrazol-5-yl](morpholin-4-ylamino)carboxamide dihydrochloride]: the IC50 is under 100 nM on Fyn (kinase panel, 10 μM ATP, read-out: Fyn IC50); under 50 nM on Fyn (setting [1]); under 500 nM on Rsk3 (setting [2]); 25 nM in the assay with CEM.

The values above are taken from patent US20080146555A1, “Uses of Kinase Inhibitors and Compositions Thereof” (GPC Biotech, Inc, priority 2004, published 2008).
